PMC5218480 (PLoS ONE, 2017)

Tested on: MV-4-11 cells
Test: Gene expression microarray analysis (Affymetrix PrimeView) and GSEA
Format: cell-based, human
Design: RFU PODN (11730768_x_at) / Fold change /veh PODN (11730768_x_at) / RFU LINC00158 (11744669_a_at) / Fold change /veh LINC00158 (11744669_a_at) / RFU DUSP10 (11751237_a_at) / Fold change /veh DUSP10 (11751237_a_at) / RFU ID3 (11757404_x_at) / Fold change /veh ID3 (11757404_x_at) / RFU PLEKHG5 (11737974_s_at) / Fold change /veh PLEKHG5 (11737974_s_at) / RFU LRRC4B (11730491_at) / Fold change /veh LRRC4B (11730491_at) / RFU GIMAP4 (11747438_a_at) / Fold change /veh GIMAP4 (11747438_a_at) / RFU KRT8 (11758183_x_at) / Fold change /veh KRT8 (11758183_x_at) / RFU CNN1 (11734310_a_at) / Fold change /veh CNN1 (11734310_a_at) / RFU VPS37D (11726825_at) / Fold change /veh VPS37D (11726825_at) / RFU C10orf10 (11716522_x_at) / Fold change /veh C10orf10 (11716522_x_at) / RFU KIR2DL2 /// KIR2DL4 /// KIR2DL5A /// KIR2DL5B /// KIR2DS1 /// KIR2DS2 /// KIR2DS3 /// KIR2DS4 /// KIR3DL3 /// KIR3DL3 /// KIR3DS1 (11738374_at) / Fold change /veh KIR2DL2 /// KIR2DL4 /// KIR2DL5A /// KIR2DL5B /// KIR2DS1 /// KIR2DS2 /// KIR2DS3 /// KIR2DS4 /// KIR3DL3 /// KIR3DL3 /// KIR3DS1 (11738374_at) / RFU C1QL1 (11718748_at) / Fold change /veh C1QL1 (11718748_at) / RFU TMPRSS4 (11747572_a_at) / Fold change /veh TMPRSS4 (11747572_a_at) / RFU HAMP (11756126_x_at) / Fold change /veh HAMP (11756126_x_at) / RFU RNFT2 (11725882_a_at) / Fold change /veh RNFT2 (11725882_a_at) / RFU NR4A2 (11747474_a_at) / Fold change /veh NR4A2 (11747474_a_at) / RFU ABCC12 (11746883_a_at) / Fold change /veh ABCC12 (11746883_a_at) / RFU TMEM136 (11760407_x_at) / Fold change /veh TMEM136 (11760407_x_at) / RFU CLDN22 /// WWC2 (11732394_at) / Fold change /veh CLDN22 /// WWC2 (11732394_at) / RFU HLA-DPB1 (11760878_x_at) / Fold change /veh HLA-DPB1 (11760878_x_at) / RFU SPINT1 (11716480_a_at) / Fold change /veh SPINT1 (11716480_a_at) / RFU GAP43 (11754022_s_at) / Fold change /veh GAP43 (11754022_s_at) / RFU A4GNT (11735810_at) / Fold change /veh A4GNT (11735810_at) / RFU PRB3 (11715151_x_at) / Fold change /veh PRB3 (11715151_x_at) / RFU TUBB4B (11761932_at) / Fold change /veh TUBB4B (11761932_at) / RFU CAPN14 (11732068_a_at) / Fold change /veh CAPN14 (11732068_a_at) / RFU TMCC2 (11721928_a_at) / Fold change /veh TMCC2 (11721928_a_at) / RFU IRGQ (11745062_a_at) / Fold change /veh IRGQ (11745062_a_at) / RFU FAM174B (11720279_a_at) / Fold change /veh FAM174B (11720279_a_at) / RFU TMPRSS4 (11748680_a_at) / Fold change /veh TMPRSS4 (11748680_a_at) / RFU FAM212B (11763350_a_at) / Fold change /veh FAM212B (11763350_a_at) / RFU PLEKHG5 (11743358_a_at) / Fold change /veh PLEKHG5 (11743358_a_at) / RFU ZSCAN30 (11745921_a_at) / Fold change /veh ZSCAN30 (11745921_a_at) / RFU CMKLR1 (11741424_a_at) / Fold change /veh CMKLR1 (11741424_a_at) / RFU LOC101060620 /// MAPK8IP1 (11723275_at) / Fold change /veh LOC101060620 /// MAPK8IP1 (11723275_at) / RFU SPTSSB (11747773_x_at) / Fold change /veh SPTSSB (11747773_x_at) / RFU PRSS12 (11739890_at) / Fold change /veh PRSS12 (11739890_at) / RFU BIN1 (11741810_x_at) / Fold change /veh BIN1 (11741810_x_at) / RFU WNT11 (11732464_a_at) / Fold change /veh WNT11 (11732464_a_at) / RFU C10orf10 (11716521_a_at) / Fold change /veh C10orf10 (11716521_a_at) / RFU C5orf56 (11738089_at) / Fold change /veh C5orf56 (11738089_at) / RFU CYB561 (11721691_x_at) / Fold change /veh CYB561 (11721691_x_at) / RFU ANKRD19P (11752326_a_at) / Fold change /veh ANKRD19P (11752326_a_at) / RFU OR2T12 /// OR2T33 /// OR2T8 (11738714_s_at) / Fold change /veh OR2T12 /// OR2T33 /// OR2T8 (11738714_s_at) / RFU VCAN (11748164_a_at) / Fold change /veh VCAN (11748164_a_at) / RFU JSRP1 (11732532_at) / Fold change /veh JSRP1 (11732532_at) / RFU KRTAP10-11 (11738290_x_at) / Fold change /veh KRTAP10-11 (11738290_x_at) / RFU MYO3A (11730013_a_at) / Fold change /veh MYO3A (11730013_a_at) / RFU EBF3 (11725865_a_at) / Fold change /veh EBF3 (11725865_a_at) / RFU CAMK2N1 (11719241_x_at) / Fold change /veh CAMK2N1 (11719241_x_at) / RFU C5orf56 (11738088_a_at) / Fold change /veh C5orf56 (11738088_a_at) / RFU OLFML3 (11715873_a_at) / Fold change /veh OLFML3 (11715873_a_at) / RFU LOC100653217 /// NTM (11731650_a_at) / Fold change /veh LOC100653217 /// NTM (11731650_a_at) / RFU MAPK11 (11762145_a_at) / Fold change /veh MAPK11 (11762145_a_at) / RFU FIZ1 (11724087_x_at) / Fold change /veh FIZ1 (11724087_x_at) / RFU OASL (11726364_x_at) / Fold change /veh OASL (11726364_x_at) / RFU SOX15 (11748057_x_at) / Fold change /veh SOX15 (11748057_x_at) / RFU CD79A (11719716_a_at) / Fold change /veh CD79A (11719716_a_at) / RFU HIST1H1D (11736915_at) / Fold change /veh HIST1H1D (11736915_at) / RFU CASKIN2 (11723855_a_at) / Fold change /veh CASKIN2 (11723855_a_at) / RFU LOC730098 (11760151_x_at) / Fold change /veh LOC730098 (11760151_x_at) / RFU OR4N2 (11742367_at) / Fold change /veh OR4N2 (11742367_at) / RFU PRRT2 (11749266_a_at) / Fold change /veh PRRT2 (11749266_a_at) / RFU SNX32 (11753110_a_at) / Fold change /veh SNX32 (11753110_a_at) / RFU CDHR5 (11726645_a_at) / Fold change /veh CDHR5 (11726645_a_at) / RFU RCAN1 (11760418_a_at) / Fold change /veh RCAN1 (11760418_a_at) / RFU FAM167A (11723789_a_at) / Fold change /veh FAM167A (11723789_a_at) / RFU FAM26E (11764081_at) / Fold change /veh FAM26E (11764081_at) / RFU ISYNA1 (11749810_s_at) / Fold change /veh ISYNA1 (11749810_s_at) / RFU ACY1 (11761880_at) / Fold change /veh ACY1 (11761880_at) / RFU 11764098_at / Fold change /veh 11764098_at / RFU SAMD14 (11745864_x_at) / Fold change /veh SAMD14 (11745864_x_at) / RFU NPB (11741838_a_at) / Fold change /veh NPB (11741838_a_at) / RFU TMPRSS6 (11731388_a_at) / Fold change /veh TMPRSS6 (11731388_a_at) / RFU KRTAP10-2 (11738614_at) / Fold change /veh KRTAP10-2 (11738614_at) / RFU ARHGAP8 /// PRR5-ARHGAP8 (11727945_x_at) / Fold change /veh ARHGAP8 /// PRR5-ARHGAP8 (11727945_x_at) / RFU KRTAP5-7 /// NADSYN1 (11734609_at) / Fold change /veh KRTAP5-7 /// NADSYN1 (11734609_at) / RFU RASL12 (11751679_a_at) / Fold change /veh RASL12 (11751679_a_at) / RFU CDKN2B (11736163_a_at) / Fold change /veh CDKN2B (11736163_a_at) / RFU PRF1 (11729649_at) / Fold change /veh PRF1 (11729649_at) / RFU, ZNF638 /// ZNF638-IT1 / Fold change vs veh, ZNF638 /// ZNF638-IT1 / RFU, PANK3 / Fold change vs veh, PANK3 / RFU, SH3YL1 / Fold change vs veh, SH3YL1 / RFU, ZEB2 / Fold change vs veh, ZEB2 / RFU, NRIP1 / Fold change vs veh, NRIP1 / RFU, PTTG1IP / Fold change vs veh, PTTG1IP / RFU, CAPN2 / Fold change vs veh, CAPN2 / RFU, MED14 / Fold change vs veh, MED14 / RFU, SNORA58 / Fold change vs veh, SNORA58 / RFU, C1orf63 / Fold change vs veh, C1orf63 / RFU, LRRFIP1 / Fold change vs veh, LRRFIP1 / RFU, NDUFAF7 / Fold change vs veh, NDUFAF7 / RFU, SLC12A2 / Fold change vs veh, SLC12A2 / RFU, IBTK / Fold change vs veh, IBTK / RFU, ESF1 / Fold change vs veh, ESF1 / Fold change vs veh, TMEM50B / RFU, TAOK1 / Fold change vs veh, TAOK1 / RFU, ACBD3 / Fold change vs veh, ACBD3 / RFU, TMA16 / Fold change vs veh, TMA16 / RFU, RWDD3 / Fold change vs veh, RWDD3 / RFU, BCAT1 / Fold change vs veh, BCAT1 / RFU, EDEM3 / Fold change vs veh, EDEM3 / RFU, TMEM33 / Fold change vs veh, TMEM33 / RFU, WDR75 / Fold change vs veh, WDR75 / RFU, AHCTF1 / Fold change vs veh, AHCTF1 / RFU, TFRC / Fold change vs veh, TFRC / RFU, ZDHHC17 / Fold change vs veh, ZDHHC17 / RFU, NOM1 / Fold change vs veh, NOM1 / RFU, ARL8B / Fold change vs veh, ARL8B / RFU, ZBTB11 / Fold change vs veh, ZBTB11 / RFU, TAMM41 / Fold change vs veh, TAMM41 / RFU, KIAA1704 /// LOC100996395 / Fold change vs veh, KIAA1704 /// LOC100996395 / RFU, ING1 / Fold change vs veh, ING1 / RFU, TRMT61B / Fold change vs veh, TRMT61B / RFU, FUBP3 / Fold change vs veh, FUBP3 / RFU, TP53 / Fold change vs veh, TP53 / RFU, TNKS2 / Fold change vs veh, TNKS2 / RFU, ZFP14 / Fold change vs veh, ZFP14 / RFU, ACTR2 / Fold change vs veh, ACTR2 / RFU, PPP3R1 / Fold change vs veh, PPP3R1 / RFU, PIK3R1 / Fold change vs veh, PIK3R1 / RFU, HNRNPA1 / Fold change vs veh, HNRNPA1 / RFU, RNF170 / Fold change vs veh, RNF170 / RFU, ZNF28 / Fold change vs veh, ZNF28 / RFU, RNGTT / Fold change vs veh, RNGTT / RFU, OGT / Fold change vs veh, OGT / RFU, BRD1 / Fold change vs veh, BRD1 / RFU, MARS / Fold change vs veh, MARS / RFU, ZNF655 / Fold change vs veh, ZNF655 / RFU, FAHD1 / Fold change vs veh, FAHD1 / RFU, BDP1 / Fold change vs veh, BDP1 / RFU, LRRCC1 / Fold change vs veh, LRRCC1 / RFU, ARID1A / Fold change vs veh, ARID1A / RFU, ZNF146 / Fold change vs veh, ZNF146 / RFU, ZNF330 / Fold change vs veh, ZNF330 / RFU, GPN3 / Fold change vs veh, GPN3 / RFU, C9orf123 / Fold change vs veh, C9orf123 / RFU, N4BP2L2 / Fold change vs veh, N4BP2L2 / RFU, ARFIP1 / Fold change vs veh, ARFIP1 / RFU, FAM179B / Fold change vs veh, FAM179B / RFU, BCL10 / Fold change vs veh, BCL10 / RFU, UHRF1BP1L / Fold change vs veh, UHRF1BP1L / RFU, BET1 / Fold change vs veh, BET1 / RFU, CNOT2 / Fold change vs veh, CNOT2 / RFU, ZNF268 / Fold change vs veh, ZNF268 / Fold change vs veh, ZNF507 / RFU, DGCR2 / Fold change vs veh, DGCR2 / RFU, WDSUB1 / Fold change vs veh, WDSUB1 / Fold change vs veh, HSP90B1 /// MIR3652 / RFU, ADSS / Fold change vs veh, ADSS / RFU, GK / Fold change vs veh, GK / RFU, ZNF148 / Fold change vs veh, ZNF148 / RFU, TAF9 / Fold change vs veh, TAF9 / RFU, SLC1A5 / Fold change vs veh, SLC1A5 / RFU, SLMO2 / Fold change vs veh, SLMO2 / RFU, ABCC4 / Fold change vs veh, ABCC4 / RFU, LOC101060439 /// RAP1B / Fold change vs veh, LOC101060439 /// RAP1B / RFU, RFX7 / Fold change vs veh, RFX7 / RFU, GTPBP10 / Fold change vs veh, GTPBP10 / RFU, CNEP1R1 / Fold change vs veh, CNEP1R1 / RFU, BIVM-ERCC5 /// ERCC5 / Fold change vs veh, BIVM-ERCC5 /// ERCC5 / RFU, ILF3 / Fold change vs veh, ILF3 / RFU 11762660_at / Fold change /veh 11762660_at / RFU VCAN (11757783_s_at) / Fold change /veh VCAN (11757783_s_at) / RFU DDX43 (11728927_at) / Fold change /veh DDX43 (11728927_at) / RFU KRT8 (11758188_x_at) / Fold change /veh KRT8 (11758188_x_at) / RFU NKD1 (11759106_at) / Fold change /veh NKD1 (11759106_at) / RFU SRD5A1 (11742802_a_at) / Fold change /veh SRD5A1 (11742802_a_at) / RFU TPSAB1 /// TPSB2 (11721975_s_at) / Fold change /veh TPSAB1 /// TPSB2 (11721975_s_at) / RFU GSTM3 (11746129_a_at) / Fold change /veh GSTM3 (11746129_a_at) / RFU IL23R (11737362_x_at) / Fold change /veh IL23R (11737362_x_at) / RFU TMEM51 (11727254_a_at) / Fold change /veh TMEM51 (11727254_a_at) / RFU PIWIL2 (11732686_x_at) / Fold change /veh PIWIL2 (11732686_x_at) / RFU ORM1 (11744905_x_at) / Fold change /veh ORM1 (11744905_x_at) / RFU CCDC152 (11743942_at) / Fold change /veh CCDC152 (11743942_at) / RFU ECM1 (11717891_a_at) / Fold change /veh ECM1 (11717891_a_at) / RFU IL23R (11748794_a_at) / Fold change /veh IL23R (11748794_a_at) / RFU TNFAIP8L3 (11732012_x_at) / Fold change /veh TNFAIP8L3 (11732012_x_at) / RFU MBOAT4 (11741988_at) / Fold change /veh MBOAT4 (11741988_at) / RFU 11764193_at / Fold change /veh 11764193_at / RFU TMEM53 (11763286_at) / Fold change /veh TMEM53 (11763286_at) / RFU MAGEB2 (11727129_at) / Fold change /veh MAGEB2 (11727129_at) / RFU TMEM200A (11744735_a_at) / Fold change /veh TMEM200A (11744735_a_at) / RFU CCDC152 (11751479_a_at) / Fold change /veh CCDC152 (11751479_a_at) / RFU FAM211A (11726209_a_at) / Fold change /veh FAM211A (11726209_a_at) / RFU RGS16 (11746705_a_at) / Fold change /veh RGS16 (11746705_a_at) / RFU VCAN (11755009_s_at) / Fold change /veh VCAN (11755009_s_at) / RFU RHOB (11743442_s_at) / Fold change /veh RHOB (11743442_s_at) / RFU RGS16 (11720943_a_at) / Fold change /veh RGS16 (11720943_a_at) / RFU RGS16 (11720944_at) / Fold change /veh RGS16 (11720944_at) / RFU, VPS4B / Fold change vs veh, VPS4B / RFU, CREB1 / Fold change vs veh, CREB1 / RFU, DNAJC13 / Fold change vs veh, DNAJC13 / RFU, GNAQ / Fold change vs veh, GNAQ / RFU, CDK5R1 / Fold change vs veh, CDK5R1 / RFU, ZRANB3 / Fold change vs veh, ZRANB3 / RFU, CUL4A / Fold change vs veh, CUL4A / RFU, CCNY / Fold change vs veh, CCNY / RFU, UFL1 / Fold change vs veh, UFL1 / RFU, COG3 / Fold change vs veh, COG3 / RFU, DIAPH2 / Fold change vs veh, DIAPH2 / RFU, SKA2 / Fold change vs veh, SKA2 / RFU, AFF3 / Fold change vs veh, AFF3 / RFU, LMF1 / Fold change vs veh, LMF1 / RFU, IPO11 / Fold change vs veh, IPO11 / RFU, DFFB / Fold change vs veh, DFFB / RFU, FOXP1 / Fold change vs veh, FOXP1 / RFU, CARD8 / Fold change vs veh, CARD8 / RFU, STRN3 / Fold change vs veh, STRN3 / RFU, ADK / Fold change vs veh, ADK / RFU, RASSF2 / Fold change vs veh, RASSF2 / RFU, WIPF1 / Fold change vs veh, WIPF1 / RFU, LARP1B / Fold change vs veh, LARP1B / RFU, RASA1 / Fold change vs veh, RASA1 / RFU, RB1 / Fold change vs veh, RB1 / RFU, PPFIA1 / Fold change vs veh, PPFIA1 / RFU, MAT2A / Fold change vs veh, MAT2A / RFU, CCT5 / Fold change vs veh, CCT5 / RFU, WDR92 / Fold change vs veh, WDR92 / RFU, CUX1 / Fold change vs veh, CUX1 / RFU, TTC7A / Fold change vs veh, TTC7A / RFU, TMEM135 / Fold change vs veh, TMEM135 / RFU, DEPTOR / Fold change vs veh, DEPTOR / RFU, CPM / Fold change vs veh, CPM / RFU, DNAJB6 / Fold change vs veh, DNAJB6 / RFU, CACNA2D3 / Fold change vs veh, CACNA2D3 / RFU, DTX4 / Fold change vs veh, DTX4 / RFU, TFCP2 / Fold change vs veh, TFCP2 / RFU, GMCL1 /// GMCL1P1 / Fold change vs veh, GMCL1 /// GMCL1P1 / RFU, AEBP2 / Fold change vs veh, AEBP2 / RFU, SNHG1 /// SNORD22 /// SNORD25 /// SNORD26 /// SNORD27 /// SNORD28 /// SNORD29 /// SNORD31 / Fold change vs veh, SNHG1 /// SNORD22 /// SNORD25 /// SNORD26 /// SNORD27 /// SNORD28 /// SNORD29 /// SNORD31 / Fold change (Aza/veh), C12orf56 (ProbeSet 11735607_a_at) / Fold change (ACY-1035/veh), C12orf56 (ProbeSet 11735607_a_at) / Fold change (Aza/veh), FGFR1OP (ProbeSet 11751329_s_at) / Fold change (ACY-1035/veh), FGFR1OP (ProbeSet 11751329_s_at) / Fold change (Aza/veh), VPS36 (ProbeSet 11739960_a_at) / Fold change (ACY-1035/veh), VPS36 (ProbeSet 11739960_a_at) / RFU SYPL1 (11715823_x_at) / Fold change /veh SYPL1 (11715823_x_at) / RFU IGFBP7 (11715501_s_at) / Fold change /veh IGFBP7 (11715501_s_at) / RFU REEP3 (11722064_at) / Fold change /veh REEP3 (11722064_at) / RFU IGLL1 (11728026_x_at) / Fold change /veh IGLL1 (11728026_x_at): dose or concentration left out as unconfirmed
Settings: MV-4-11 cells, 48 hours

Nc1ccc(-c2cccs2)cc1NC(=O)c1ccc2c(c1)cc(C1CC1)n2CCN1CCOCC1 [ACY-1035]
RFU CNN1 (11734310_a_at): 26.40 RFU
